Assay results as given in patent US6610721B2, “Imidazo heterocyclic compounds” (Novo Nordisk A/S, priority 2000, dated 2003).
Counter-ions that a name gives are not always drawn.

Row | Compound | melting point
1 | COc1cc(C#N)ccc1OCC1CCCc2[nH]cnc21 (centres unmarked) (as salt: hydrochloride) | 193 to 195 °C
2 | FC(F)(F)c1ccc(OCC2CCCc3[nH]cnc32)cc1 (centres unmarked) (as salt: hydrochloride) | 242 to 244 °C
3 | Cl.c1ccc(-c2cccc(OCC3CCc4[nH]cnc4C3)c2)cc1 (centres unmarked) | 165 to 167 °C
4 | N#Cc1ccc(OCC2CCCc3[nH]cnc32)c(Cl)c1 (centres unmarked) (as salt: hydrochloride) | 225 to 227 °C
5 | FC(F)(F)Oc1ccc(OCC2CCCc3[nH]cnc32)cc1 (centres unmarked) (as salt: hydrochloride) [Example 58, 4-(4-Trifluoromethoxyphenoxymethyl)-4,5,6,7-tetrahydro-1H-benzimidazole, Hydrochloride] | 202 to 209 °C
6 | Cl.Fc1ccccc1OCC1CCc2[nH]cnc2C1 (centres unmarked) | 192 to 194 °C
7 | Cl.Clc1ccccc1OCC1CCCc2[nH]cnc21 (centres unmarked) | 207 to 209 °C
8 | O=C(c1ccc(OCC2CCCc3[nH]cnc32)cc1)C1CC1 (centres unmarked) (as salt: hydrochloride) [Example 63, Cyclopropyl-[4-(4,5,6,7-tetrahydro-1H-benzimidazol-4-ylmethoxy)phenyl]methanone, hydrochloride] | 211 to 213 °C
9 | Clc1ccc(OCC2CCCc3[nH]cnc32)cc1 (centres unmarked) (as salt: hydrochloride) | 210 to 212 °C
10 | Cl.Clc1ccccc1OCC1CCc2[nH]cnc2C1 (centres unmarked) | 224 to 226 °C
11 | N#Cc1ccc(OCC2CCCCc3[nH]cnc32)cc1 (centres unmarked) (as salt: hydrochloride) [Example 57, 4-(1,4,5,6,7,8-Hexahydrocycloheptaimidazol-4-ylmethoxy)benzonitrile, Hydrochloride] | 232 to 235 °C
12 | Cc1cc(C#N)cc(C)c1OCC1CCCc2[nH]cnc21 (centres unmarked) (as salt: hydrochloride) | 190 to 192 °C
13 | O=C1CCCc2c(OCC3CCCc4[nH]cnc43)cccc21 (centres unmarked) (as salt: hydrochloride) | 237 to 240 °C
14 | Cl.FC(F)(F)Oc1cccc(OCC2CCc3[nH]cnc3C2)c1 (centres unmarked) | 170 to 171 °C
